{"source": "patent US20250345332A1", "about": "“APROCITENTAN FOR THE TREATMENT OF HYPERTENSION” (IDORSIA PHARMACEUTICALS LTD, priority 2022, published 2025)", "key": {"[1]": {"system": "subjects having essential hypertension", "conditions": "cited from earlier work"}, "[2]": {"system": "patients with resistant hypertension", "assay": "PRECISION phase 3 trial: safety assessments", "assay_type": "in vivo, human", "conditions": "for tolerability: 12.5 mg and 25 mg, up to 48 weeks; for treatment-emergent adverse events (TEAEs), patients: 4-week double-blind period, placebo 19.4%; for edema/fluid retention, patients: 4-week part 1, placebo 2.1%; for discontinuation from study treatment due to an adverse event: first 4 weeks double-blind, placebo 0.8%; for estimated plasma volume increase: placebo 0.51%", "procedure": "(§1) A single, randomized study with three sequential treatment parts was designed. The study design addressed both the 4-week placebo-controlled efficacy of 12.5 and 25 mg aprocitentan (Part 1) and the durability of its effects in long-term active treatment with 25 mg aprocitentan for a further 32 weeks (Part 2) followed by a 12-week placebo-controlled withdrawal period with patients re-randomized to 25 mg or placebo (Part 3) (see for example Danaietash P et al; Identifying and treating resistant hypertension in PRECISION—a randomized long-term clinical trial with Aprocitentan. J Clin Hypertension 2022 (in press). Patients with uncontrolled BP (measured as unattended automated office BP) despite the use of three or more antihypertensive medications for at least 1 year were screened. They were switched to a single-tablet triple fixed combination antihypertensive therapy for at least 4 weeks before entering a single-blind placebo run-in period. The 4-week placebo run-in period further excluded placebo responders. The randomization period consisted of 3 sequential parts: • 1) a 4-week double-blind part with aprocitentan 12.5 mg, 25 mg, or placebo (1:1:1 ratio); • 2) a 32-week single-blind part with aprocitentan 25 mg; and • 3) a 12-week randomized withdrawal part with aprocitentan 25 mg or placebo (1:1 ratio).\n(§2) • Part 1: Double-blind, randomized parallel-group and placebo-controlled and lasts for 4 weeks. Subjects received (1:1:1 ratio), 25 or 12.5 mg aprocitentan, or placebo. • Part 2: Single-blind and single-arm, lasts for 32 weeks. All subjects received aprocitentan 25 mg. • Part 3: Double-blind withdrawal. All subjects completing part 2 and entering part 3 are re-randomized (1:1 ratio) to either aprocitentan 25 mg or placebo.\nSafety assessments include (treatment emergent) adverse events (TEAEs) including TEAEs leading to premature discontinuation of study treatment; adverse events of special interest (AESIs): hepatic disorders, anemia (or hemodilution), edema/fluid retention, and decompensation/aggravation of heart failure; treatment-emergent major adverse cardiovascular events (MACEs)/MACE-plus defined as cardiovascular death, non-fatal myocardial infarction (MI), or non-fatal stroke, or hear filure leading to hospitalization confirmed by the Central Adjudication Committee (CAC); as well as vital signs, body weight, clinical laboratory assessments, and 12-lead electrocardiograms."}, "[3]": {"system": "patients with resistant hypertension", "assay": "PRECISION phase 3 trial: urine albumin-creatinine ratio (UACR)", "assay_type": "in vivo, human", "procedure": "as §1, §2\nIn a population with difficult-to control hypertension (mean age of 62 years, obesity [69.3% of subjects], >50% with diabetes mellitus, 22% with CKD stage 3-4), evaluation of UACR is important. […] The geometric mean UACR at baseline was 26.6 mg/g in the overall population. At Week 4, placebo-corrected reductions in UACR of 30% and 34% with aprocitentan 12.5 mg and 25 mg were noted, respectively."}, "[4]": {"conditions": "in comparison to corresponding alkylated derivatives; cited from earlier work"}, "[5]": {"system": "rat models of hypertension", "conditions": "cited from earlier work"}, "[6]": {"conditions": "preliminary data, subjects with SGLT-2 inhibitor plus standardized antihypertensive background therapy, small sample size"}}, "note": "Entries after “also recorded” stand apart in the source; their conditions may differ. Where two headings read alike, the source gives them in different places."}
{"smiles": "NS(=O)(=O)Nc1ncnc(OCCOc2ncc(Br)cn2)c1-c1ccc(Br)cc1", "note": "[aprocitentan, {5-(4-bromo-phenyl)-6-[2-(5-bromo-pyrimidin-2-yloxy)-ethoxy]-pyrimidin-4-yl}-sulfamide]", "values": [{"measurement": "tolerability", "setting": "[1]; across all four doses (5, 10, 25, 50 mg)", "result": "well tolerated"}, {"measurement": "cases of increased liver enzymes above three times the upper limit of the normal range", "setting": "[1]; aprocitentan 5 mg group", "result": "one"}, {"measurement": "cases of peripheral edema", "setting": "[1]; aprocitentan 25 mg group", "result": "two"}, {"measurement": "cases of peripheral edema", "setting": "[1]; aprocitentan 50 mg group", "result": "two"}, {"measurement": "mean body weight change from baseline", "setting": "[1]; aprocitentan 5 and (10) mg groups", "result": "remained unchanged"}, {"measurement": "mean body weight increase from baseline", "setting": "[1]; aprocitentan 25 and 50 mg groups", "result": 0.4, "unit": "kg"}, {"measurement": "tolerability", "setting": "[2]", "result": "generally well tolerated"}, {"measurement": "tolerability", "setting": "[2]; listed as Aprocitentan", "result": "generally well tolerated"}, {"measurement": "treatment-emergent adverse events (TEAEs), patients", "setting": "[2]; aprocitentan 12.5 mg", "result": 27.6, "unit": "%"}, {"measurement": "edema/fluid retention, patients", "setting": "[2]; aprocitentan 12.5 mg", "result": 9.1, "unit": "%"}, {"measurement": "discontinuation from study treatment due to an adverse event", "setting": "[2]; aprocitentan 12.5 mg", "result": 2.5, "unit": "%"}, {"measurement": "estimated plasma volume increase", "setting": "[2]; aprocitentan 12.5 mg, part 1", "result": 10.5, "unit": "%"}, {"measurement": "haemoglobin concentration change", "setting": "[2]; aprocitentan 12.5 mg, part 1, placebo −0.4", "result": -8.0, "unit": "g/L"}, {"measurement": "treatment-emergent adverse events (TEAEs), patients", "setting": "[2]; aprocitentan 25 mg", "result": 36.7, "unit": "%"}, {"measurement": "edema/fluid retention, patients", "setting": "[2]; aprocitentan 25 mg", "result": 18.4, "unit": "%"}, {"measurement": "oedema or fluid retention, patients", "setting": "[2]; aprocitentan 25 mg, 12-week part 3, placebo 1.3%", "result": 2.6, "unit": "%"}, {"measurement": "oedema or fluid retention, patients", "setting": "[2]; aprocitentan 25 mg, 32-week part 2", "result": 18.2, "unit": "%"}, {"measurement": "discontinuation from study treatment due to an adverse event", "setting": "[2]; aprocitentan 25 mg", "result": 2.0, "unit": "%"}, {"measurement": "admission to hospital for heart failure, patients", "setting": "[2]; aprocitentan 25 mg, part 1 (two of 245)", "result": 0.8, "unit": "%"}, {"measurement": "patients who discontinued due to oedema or fluid retention", "setting": "[2]; aprocitentan 25 mg, part 1, of 245 patients", "result": "one"}, {"measurement": "estimated plasma volume increase", "setting": "[2]; aprocitentan 25 mg, part 1", "result": 11.2, "unit": "%"}, {"measurement": "admission to hospital for heart failure, patients", "setting": "[2]; aprocitentan 25 mg, part 2 (six of 704)", "result": 0.9, "unit": "%"}, {"measurement": "patients who discontinued due to oedema or fluid retention", "setting": "[2]; aprocitentan 25 mg, part 2, of 704 patients", "result": "five"}, {"measurement": "admission to hospital for heart failure, patients", "setting": "[2]; aprocitentan 25 mg, part 3 (two of 310), placebo 0.3%", "result": 0.6, "unit": "%"}, {"measurement": "patients who discontinued due to oedema or fluid retention", "setting": "[2]; aprocitentan 25 mg, part 3, of 310 patients", "result": "one"}, {"measurement": "patients who discontinued treatment due to edema/fluid retention", "setting": "[2]; aprocitentan 25 mg, parts 1-3, <1%", "result": "seven"}, {"measurement": "bodyweight", "setting": "[2]; both aprocitentan doses, part 1, decrease with placebo", "result": "moderate increase"}, {"measurement": "serious edema/fluid retention adverse events", "setting": "[2]; both on aprocitentan 25 mg, <1%", "result": "Two"}, {"measurement": "edema/fluid retention events mild to moderate in intensity", "setting": "[2]; entire study duration", "result": "> 95", "unit": "%"}, {"measurement": "patients who developed edema/fluid retention at one time point", "setting": "[2]; entire study duration", "result": "Approximately 30%"}, {"measurement": "hepatotoxicity", "setting": "[2]; in vivo", "result": "No signs"}, {"measurement": "NT-proBNP and MR-proANP", "setting": "[2]; part 1, stabilisation in part 2, reversal in part 3", "result": "Slight increases"}, {"measurement": "eGFR", "setting": "[2]; part 1 versus placebo", "result": "decreased slightly"}, {"measurement": "decrease of hemoglobin value from baseline to week 36", "setting": "[2]; [6]", "result": "smaller decrease"}, {"measurement": "reduction in UACR", "setting": "[3]; aprocitentan 12.5 mg, subjects with CKD stage 3-4", "result": "−26", "unit": "%"}, {"measurement": "reduction in UACR", "setting": "[3]; aprocitentan 12.5 mg, subjects with baseline microalbuminuria", "result": "−43", "unit": "%"}, {"measurement": "UACR reduction during part 2", "setting": "[3]; aprocitentan 25 mg, single-blind part 2", "result": "maintained; also recorded: sustained"}, {"measurement": "reduction in UACR", "setting": "[3]; aprocitentan 25 mg, subjects with CKD stage 3-4", "result": "−45", "unit": "%"}, {"measurement": "reduction in UACR", "setting": "[3]; aprocitentan 25 mg, subjects with baseline microalbuminuria", "result": "−45", "unit": "%"}, {"measurement": "antiproteinuric effect (UACR change)", "setting": "[3]; patients with chronic kidney disease stage 3-4", "result": "−46", "unit": "%"}, {"measurement": "antiproteinuric effect (UACR change)", "setting": "[3]; patients with eGFR of 60 mL/min per 1.73 m^2 or higher", "result": "−26", "unit": "%"}, {"measurement": "antiproteinuric effect", "setting": "[3]; [6]", "result": "improved antiproteinuric effect"}, {"measurement": "clearance in vivo", "setting": "[4]", "result": "much shorter"}, {"measurement": "half-life in vivo", "setting": "[4]", "result": "much longer"}, {"measurement": "pharmacological effect in combination with ACE inhibitors such as enalapril", "setting": "[5]; in certain models", "result": "synergistic"}, {"measurement": "pharmacological effect in combination with angiotensin receptor blockers such as valsartan", "setting": "[5]; rat, in vivo", "result": "synergistic"}, {"measurement": "pharmacological effect in combination with calcium channel blockers such as amlodipine", "setting": "[5]; rat, in vivo", "result": "additive"}]}
